The text below walks through data of ChEMBL document CHEMBL3351345, “Design, synthesis, and structure-activity relationships of novel benzothiazole derivatives bearing the ortho-hydroxy N-carbamoylhydrazone moiety as potent antitumor agents” (Eur J Med Chem, 2014).

Structures are written as SMILES. A value given as a limit tells only on which side of the number the result lay.

Experiment [1] concerns NCI-H226. The experiment can be described thus: Antiproliferative activity against human NCI-H226 cells after 72 hrs by MTT assay. Type of experiment: functional, cell-based. To be noted: NCI-H226, 72 h. For orientation: Tetrazolium assays rely on reduction of a dye to a coloured formazan, in cell work by metabolically active cells.
The subject of experiment [2] is SK-N-SH. The experiment can be described thus: Antiproliferative activity against human SK-N-SH cells after 72 hrs by MTT assay. In kind it is functional, cell-based.
Experiment [3] relates to HT-29. Put plainly: Antiproliferative activity against human HT-29 cells after 72 hrs by MTT assay. In kind it is functional, cell-based. To be noted: HT-29, 72 h.
Experiment [4] in a line: Antiproliferative activity against human MKN45 cells after 72 hrs by MTT assay. Type of experiment: functional, cell-based. The settings on record: MKN-45, 72 h.
Experiment [5] has as its target T1, Caspase-3 (Homo sapiens, UniProt P42574).
T1 sequence (P42574 whole entry): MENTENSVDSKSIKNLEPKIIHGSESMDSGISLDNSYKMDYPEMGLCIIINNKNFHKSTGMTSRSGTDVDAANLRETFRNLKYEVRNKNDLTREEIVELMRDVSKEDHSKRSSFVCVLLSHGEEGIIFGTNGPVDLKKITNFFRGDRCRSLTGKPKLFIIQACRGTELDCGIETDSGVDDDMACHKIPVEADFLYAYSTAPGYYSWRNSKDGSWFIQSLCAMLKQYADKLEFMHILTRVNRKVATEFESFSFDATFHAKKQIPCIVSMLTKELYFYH
The experiment can be described thus: Induction of procaspase 3 activity (unknown origin) using Ac-DEVD-pNa as substrate after 2 hrs.

In experiment [6] the test system is MDA-MB-231. Put plainly: Antiproliferative activity against human MDA-MB-231 cells after 72 hrs by MTT assay. The settings on record: MDA-MB-231, 72 h.

Turning to `CC1CCN(Cc2ccc3nc(NC(=O)N/N=C/c4ccc(OCc5cccc(Cl)c5)cc4O)sc3c2)CC1`, the IC50 amounted to 360 nM in experiment [1]; 340 nM in experiment [2]; 1720 nM in experiment [3]; 670 nM in experiment [4]; 1120 nM in experiment [6]. This compound displayed an EC50 in experiment [5] of 4260 nM.

On to `C=CCc1cccc(/C=N/NC(=O)CN2CCN(Cc3ccccc3)CC2)c1O` [PAC-1], for which the IC50 in experiment [1] was 1020 nM; in experiment [2], 3060 nM; in experiment [3], 1360 nM; in experiment [4], 2610 nM; in experiment [6], 4800 nM. Also, in experiment [5], the EC50 stood at 4080 nM.

As for `O=C(N/N=C/c1ccc(OCc2csc(Cc3ccc4c(c3)OCO4)n2)cc1O)Nc1nc2ccc(N3CCOCC3)cc2s1`, the IC50 in experiment [1] came to 2140 nM; in experiment [2] it was 6210 nM; in experiment [3], 2310 nM; in experiment [4] it was 1010 nM; in experiment [6], 4030 nM.

For `CC1CCN(Cc2ccc3nc(NC(=O)N/N=C/c4ccc(OCc5ccccc5Cl)cc4O)sc3c2)CC1`, the IC50 in experiment [1] is 790 nM; in experiment [2], 850 nM; in experiment [3], 1030 nM; in experiment [4], 760 nM; in experiment [6], 2300 nM.

Regarding `CCN(CC)Cc1ccc2nc(NC(=O)N/N=C/c3ccc(OCc4ccc(C)cc4)cc3O)sc2c1`, the IC50 came to 1010 nM in experiment [1]; 1430 nM in experiment [2]; 1330 nM in experiment [3]; 580 nM in experiment [4]; 710 nM in experiment [6].

Consider `Cc1ccc(COc2ccc(/C=N/NC(=O)Nc3nc4ccc(CN(C)C)cc4s3)c(O)c2)cc1`, for which the IC50 turned out to be 1080 nM in experiment [1]; 2580 nM in experiment [2]; 2130 nM in experiment [3]; 1270 nM in experiment [4]; 2650 nM in experiment [6].

Regarding `CCN(CC)Cc1ccc2nc(NC(=O)N/N=C/c3ccc(OCc4ccccc4)cc3O)sc2c1`, the 50% inhibitory concentration (IC50) turned out to be 880 nM in experiment [1], 1670 nM in experiment [2] and 1440 nM in experiment [3].

`CC1CCN(Cc2ccc3nc(NC(=O)N/N=C/c4ccc(OCc5ccc(Cl)cc5Cl)cc4O)sc3c2)CC1`: the IC50 in experiment [1] was 390 nM; in experiment [2] it was 1030 nM; in experiment [3], 1000 nM; in experiment [4] it was 280 nM; in experiment [6], 300 nM.

Take `CC1CCN(Cc2ccc3nc(NC(=O)N/N=C/c4ccccc4O)sc3c2)CC1`: the IC50 in experiment [1] is 2960 nM; in experiment [2] it was 4360 nM; in experiment [3], 10400 nM; in experiment [4], 680 nM; in experiment [6], 12300 nM.

With `CC(C)(C)c1ccc(COc2ccc(/C=N/NC(=O)Nc3nc4ccc(N5CCOCC5)cc4s3)c(O)c2)cc1`, the IC50 in experiment [1] is 240 nM; in experiment [2], 920 nM; in experiment [3], 920 nM; in experiment [4] it was 460 nM; in experiment [6], 1040 nM. The same compound showed an EC50 in experiment [5] of 18200 nM.

On to `O=C(N/N=C/c1ccc(OCc2ccc(Cl)cc2Cl)cc1O)Nc1nc2ccc(N3CCOCC3)cc2s1`, for which the IC50 in experiment [1] came out at 1220 nM; in experiment [2], 3140 nM; in experiment [3] it was 4720 nM; in experiment [4], 1750 nM; in experiment [6], 15100 nM.

Turning to `Cc1ccc(COc2ccc(/C=N/NC(=O)Nc3nc4ccc(N5CCOCC5)cc4s3)c(O)c2)cc1`, the IC50 was 530 nM in experiment [1]; 2510 nM in experiment [2]; 1580 nM in experiment [3]; 750 nM in experiment [4]; 19300 nM in experiment [6].

As to `CCN(CC)Cc1ccc2nc(NC(=O)N/N=C/c3ccccc3O)sc2c1`, the IC50 was 1810 nM in experiment [1]; 5790 nM in experiment [2]; 4030 nM in experiment [3]; 1710 nM in experiment [4]; 11300 nM in experiment [6].

Turning to `O=C(N/N=C/c1ccccc1O)Nc1nc2ccc(N3CCOCC3)cc2s1`, the IC50 was 4260 nM in experiment [1]; 11700 nM in experiment [2]; 67900 nM in experiment [3]; 9310 nM in experiment [4]; over 100000 nM in experiment [6].

`CN(C)Cc1ccc2nc(NC(=O)N/N=C/c3ccc(OCc4ccc(C(C)(C)C)cc4)cc3O)sc2c1`: the IC50 in experiment [1] is 830 nM; in experiment [2], 1660 nM; in experiment [3], 1510 nM; in experiment [4], 1040 nM; in experiment [6], 1140 nM.

Take `CC1CCN(Cc2ccc3nc(NC(=O)N/N=C/c4ccc(OCc5ccc(Cl)cc5)cc4O)sc3c2)CC1`: the IC50 in experiment [1] stood at 410 nM; in experiment [2] it was 1060 nM; in experiment [3] it was 950 nM; in experiment [4], 210 nM; in experiment [6], 880 nM.

For the compound `CC1CCN(Cc2ccc3nc(NC(=O)N/N=C/c4ccc(O)cc4O)sc3c2)CC1`, the IC50 was found to be 4610 nM in experiment [1]; 7740 nM in experiment [2]; 2730 nM in experiment [3]; 4090 nM in experiment [4]; 1660 nM in experiment [6].

Turning to `CCN(CC)Cc1ccc2nc(NC(=O)N/N=C/c3ccc(O)cc3O)sc2c1`, the IC50 in experiment [1] turned out to be 5160 nM; in experiment [2], 6050 nM; in experiment [3] it was 23700 nM; in experiment [4], 1740 nM; in experiment [6] it was 4110 nM.

Regarding `O=C(N/N=C/c1ccc(OCc2ccc(Cl)cc2)cc1O)Nc1nc2ccc(N3CCOCC3)cc2s1`, the IC50 in experiment [1] is 260 nM; in experiment [2], 1370 nM; in experiment [3], 1.8 nM; in experiment [4] it was 290 nM; in experiment [6], 4460 nM.

In the case of `CN(C)Cc1ccc2nc(NC(=O)N/N=C/c3ccc(OCc4csc(Cc5ccc6c(c5)OCO6)n4)cc3O)sc2c1`, the IC50 turned out to be 720 nM in experiment [1]; 790 nM in experiment [2]; 1880 nM in experiment [3]; 620 nM in experiment [4]; 1040 nM in experiment [6].

In the case of `CN(C)Cc1ccc2nc(NC(=O)N/N=C/c3ccccc3O)sc2c1`, the IC50 in experiment [1] was 2030 nM; in experiment [2], 5140 nM; in experiment [3] it was 5960 nM; in experiment [4], 1540 nM; in experiment [6], 5950 nM.

As for `Cc1ccc(COc2ccc(/C=N/NC(=O)Nc3nc4ccc(CN5CCC(C)CC5)cc4s3)c(O)c2)cc1`, the IC50 was 1060 nM in experiment [1]; 1560 nM in experiment [2]; 1040 nM in experiment [3]; 310 nM in experiment [4]; 1510 nM in experiment [6].

`CC1CCN(Cc2ccc3nc(NC(=O)N/N=C/c4ccc(OCc5ccc(C(C)(C)C)cc5)cc4O)sc3c2)CC1`: the IC50 in experiment [1] amounted to 180 nM; in experiment [2], 270 nM; in experiment [3], 870 nM; in experiment [4], 170 nM; in experiment [6], 560 nM. In experiment [5], this compound showed an EC50 of 2420 nM.

Turning to `CCN(CC)Cc1ccc2nc(NC(=O)N/N=C/c3ccc(OCc4ccc(Cl)cc4Cl)cc3O)sc2c1`, the IC50 in experiment [1] stood at 700 nM; in experiment [2], 1040 nM; in experiment [3] it was 2430 nM; in experiment [4], 520 nM; in experiment [6], 1520 nM.

Take `CN(C)Cc1ccc2nc(NC(=O)N/N=C/c3ccc(OCc4cccc(Cl)c4)cc3O)sc2c1`: the IC50 in experiment [1] turned out to be 360 nM; in experiment [2] it was 1190 nM; in experiment [3], 2940 nM; in experiment [4], 190 nM; in experiment [6], 540 nM.

For the compound `CCN(CC)Cc1ccc2nc(NC(=O)N/N=C/c3ccc(OCc4ccccc4Cl)cc3O)sc2c1`, the IC50 in experiment [1] was found to be 560 nM; in experiment [2], 2010 nM; in experiment [3], 2230 nM; in experiment [4] it was 420 nM; in experiment [6] it was 740 nM.

For the compound `CC1CCN(Cc2ccc3nc(NC(=O)N/N=C/c4ccc(OCc5csc(Cc6ccc7c(c6)OCO7)n5)cc4O)sc3c2)CC1`, the IC50 came out at 810 nM in experiment [1]; 1250 nM in experiment [2]; 1120 nM in experiment [3]; 550 nM in experiment [4]; 880 nM in experiment [6].

For `O=C(N/N=C/c1ccccc1O)Nc1nc2ccc(CN3CCOCC3)cc2s1`, the IC50 in experiment [1] is 2710 nM; in experiment [2], 7050 nM; in experiment [3] it was 10300 nM; in experiment [4], 2340 nM; in experiment [6] it was 12000 nM.

Regarding `CC1CCN(Cc2ccc3nc(NC(=O)N/N=C/c4ccc(OCc5ccccc5)cc4O)sc3c2)CC1`, the results for the IC50 in experiment [1], in experiment [2] and in experiment [3] were 610 nM, 1320 nM and 1570 nM, respectively.

Consider `CN(C)Cc1ccc2nc(NC(=O)N/N=C/c3ccc(OCc4ccccc4Cl)cc3O)sc2c1`, for which the IC50 in experiment [1] was determined as 580 nM; in experiment [2], 2940 nM; in experiment [3] it was 1610 nM; in experiment [4], 330 nM; in experiment [6] it was 680 nM.

With `CN(C)Cc1ccc2nc(NC(=O)N/N=C/c3ccc(O)cc3O)sc2c1`, the IC50 was 2980 nM in experiment [1]; 14300 nM in experiment [2]; 77900 nM in experiment [3]; 2850 nM in experiment [4]; over 100000 nM in experiment [6].

Turning to `O=C(N/N=C/c1ccc(OCc2cccc(Cl)c2)cc1O)Nc1nc2ccc(N3CCOCC3)cc2s1`, the IC50 in experiment [1] is 790 nM; in experiment [2] it was 1480 nM; in experiment [3], 590 nM; in experiment [4], 280 nM; in experiment [6], 1180 nM.

As to `CN(C)Cc1ccc2nc(NC(=O)N/N=C/c3ccc(OCc4ccc(Cl)cc4)cc3O)sc2c1`, the IC50 in experiment [1] was 1170 nM; in experiment [2], 2740 nM; in experiment [3] it was 2150 nM; in experiment [4] it was 700 nM; in experiment [6], 600 nM.

As for `CCN(CC)Cc1ccc2nc(NC(=O)N/N=C/c3ccc(OCc4cccc(Cl)c4)cc3O)sc2c1`, the IC50 was 1300 nM in experiment [1]; 1830 nM in experiment [2]; 1880 nM in experiment [3]; 420 nM in experiment [4]; 570 nM in experiment [6].

As a reminder, the IC50 is the point on the concentration scale where inhibition reaches its midpoint. Low readings indicate higher potency, high ones lower potency. The term EC50 denotes the concentration needed to bring the measured effect to its halfway point. Lower therefore signals an effect from little substance.
